Experimental data published in article PMC8524146, “In vitro and in silico characterization of alkaline serine protease from Bacillus subtilis D9 recovered from Saudi Arabia” (Heliyon, 2021).

Molecular target: T1, AKD9 alkaline serine protease (Bacillus subtilis, UniProt A0A5Q0V2V1)
T1 construct: native enzyme purified from culture supernatant of isolate D9; single band just below 48 kDa; cloned gene 442 aa, 47,789 Da
Test: casein hydrolysis, A280 of TCA-soluble products
Assay type: biochemical
Conditions: 100 µM; 0.1 mM TLCK; casein substrate
From the text: casein hydrolysis, A280 of TCA-soluble products on AKD9 alkaline serine protease

T1 sequence (A0A5Q0V2V1 1-442): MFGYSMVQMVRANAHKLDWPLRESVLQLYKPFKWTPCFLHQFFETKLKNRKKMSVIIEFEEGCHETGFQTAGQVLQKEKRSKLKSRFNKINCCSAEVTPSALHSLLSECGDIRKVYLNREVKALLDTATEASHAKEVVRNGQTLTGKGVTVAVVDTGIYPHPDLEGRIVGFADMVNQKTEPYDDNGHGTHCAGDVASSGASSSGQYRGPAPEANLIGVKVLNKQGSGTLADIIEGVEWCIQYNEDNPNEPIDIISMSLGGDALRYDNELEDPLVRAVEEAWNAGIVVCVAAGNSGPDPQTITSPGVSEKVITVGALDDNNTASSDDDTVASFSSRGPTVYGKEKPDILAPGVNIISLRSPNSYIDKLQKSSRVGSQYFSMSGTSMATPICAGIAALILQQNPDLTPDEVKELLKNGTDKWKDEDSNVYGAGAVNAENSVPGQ

Cc1ccc(S(=O)(=O)N[C@@H](CCCCN)C(=O)CCl)cc1 [TLCK]
Residual activity, U/ml: 31.5 ± 0.4 U/ml
